{"source": "a melting point compilation (Tetko et al.; mined from patent text by program, amines drawn as free bases though some values may be those of a salt)", "data": [{"units": {"melting point": "°C"}, "values": [{"smiles": "O=C1Nc2c(ccc3c2CCCC3)SC1CCCN1CCN(c2ccc(F)cc2)CC1", "note": "(stereo unspecified)", "melting point": "145 to 147"}, {"smiles": "NCCCCn1c(-c2ccccc2)nc2c(N)nc3ccccc3c21", "melting point": "175 to 177"}, {"smiles": "Cc1nc(-c2c(Cl)cc(C(F)(F)F)cc2Cl)[nH]c1S(=O)(=O)Cl", "melting point": "227 to 230"}, {"smiles": "COC(=O)C(C)Oc1cc(Cl)ccc1CO", "note": "(stereo unspecified)", "melting point": "51 to 52"}, {"smiles": "O=S(=O)(c1ccc(Br)cc1)N1CCN(c2ccncc2)CC1", "melting point": "199 to 200"}, {"smiles": "COc1cccc(C2=CCN(c3ccc(Cl)nn3)CC2)c1", "melting point": 126}, {"smiles": "N#CCOC(=O)C=Cc1cc2ccccc2o1", "melting point": "119 to 121"}, {"smiles": "O=[N+]([O-])c1cccc2ccc3nc(O)c(O)nc3c12", "melting point": "> 300"}, {"smiles": "N#Cc1cc(N)n(-c2c(Cl)cc(C(F)(F)F)cc2Cl)c1", "melting point": 176}, {"smiles": "O=C(NC[C@H]1CN(c2ccc3c(c2)CCCc2cn[nH]c2-3)C(=O)O1)c1ccccc1", "melting point": "105 to 125"}, {"smiles": "Cc1cc2nc(NC(=O)CO)sc2cc1C", "melting point": "206 to 208"}, {"smiles": "Cc1ccc(-c2nc3cccnc3n2CC(=O)N(C)C)s1", "melting point": "193 to 197"}, {"smiles": "CCCc1nn(-c2ccc(C(F)(F)F)cn2)cc1CCCCOc1ccc(CCC(=O)O)c(OC)c1", "melting point": "91 to 92"}, {"smiles": "Nc1cc(C(Cl)(Cl)Cl)ccn1", "melting point": 114}, {"smiles": "CC(C)(C)OC(=O)c1ncn2c1[C@@H]1CC=CN1C(=O)c1c(Cl)cccc1-2", "melting point": "235 to 237"}, {"smiles": "CC1SC(=O)NN=C1c1ccc2c(c1)C(=Cc1ccccc1[N+](=O)[O-])C(=O)N2", "note": "(stereo unspecified)", "melting point": 258}, {"smiles": "CS(=O)c1ccc(OCCCOc2cc(OCCCCCCCCCCCCOc3ccccc3)cc(N(CC(=O)O)CC(=O)O)c2)cc1", "note": "(stereo unspecified)", "melting point": "106 to 108"}, {"smiles": "O=C(O)Cn1cc(Cc2nc3c(F)c(F)cc(F)c3s2)c2cc(F)ccc21", "melting point": "193 to 195"}, {"smiles": "COc1ccc2c(c1)CCC1=C2CCC(=O)C1", "melting point": "75 to 77"}, {"smiles": "COc1cccc(C2(C(N)=O)CCCCC2)c1", "melting point": "120 to 122"}, {"smiles": "COC(=O)c1cn(S(=O)(=O)c2ccccc2)c2ncc([N+](=O)[O-])cc12", "melting point": "195 to 196"}, {"smiles": "CCC(=O)OCC1OC(n2cnc3c(=O)[nH]c(N)nc32)C(F)C1OC(=O)CC", "note": "(stereo unspecified)", "melting point": "198 to 200"}, {"smiles": "CC1=NC(C)(C)SC1=NOC(=O)N(C)SN(C)C(=O)F", "melting point": "77 to 79"}, {"smiles": "CNc1cc(Oc2ccc(Cl)cc2Cn2ccnc2)ccc1[N+](=O)[O-]", "melting point": 130}, {"smiles": "COC(=O)[C@H]1[C@H](N2C(=O)c3ccccc3C2=O)C(=O)N1Cc1ccc(OC)cc1OC", "note": "(relative stereo)", "melting point": "186 to 188"}, {"smiles": "O=S1(=O)N=C(NC2CCCCC2)Nc2cc(Cl)sc21", "melting point": "282 to 284"}, {"smiles": "CNC(=S)NS(=O)(=O)c1cc(CCNC(=O)c2cnc3ccccc3c2)ccc1OCCOc1ccccc1", "melting point": "89 to 91"}, {"smiles": "Cc1oc(-c2ccccc2)nc1COc1ccc(COc2nn(-c3ccccc3)cc2CC(=O)O)cn1", "melting point": "164 to 165"}, {"smiles": "CC(C)(C)OC(=O)N(C[C@H](O)COc1ccc(OCc2ccccc2)cc1)C1CN(C(c2ccccc2)c2ccccc2)C1", "melting point": "95 to 96"}, {"smiles": "CC(=O)Nc1ccc(Oc2c(NCc3ccccc3)cc(C(=O)O)cc2S(N)(=O)=O)cc1", "melting point": 255}, {"smiles": "COc1ccc(NC(=O)NC(=O)Oc2ccccc2)cc1OC", "melting point": "140 to 142"}, {"smiles": "CC1(C)CCSc2cccc(CO)c21", "melting point": 53}, {"smiles": "Cc1cccc(-c2n[nH]cc2-c2ccc(F)c(-c3cn4c(n3)S(=O)CC4)c2)n1", "note": "(stereo unspecified)", "melting point": "140 to 144"}, {"smiles": "CCOC(=O)C1CC1c1cc(=O)c2cc(-c3ccccc3)ccc2o1", "note": "(stereo unspecified)", "melting point": "134 to 141"}, {"smiles": "CNc1nn(-c2ccc(C)c3c2OC(C)(C)C3)c(=O)o1", "melting point": "183 to 184"}, {"smiles": "COC(=O)c1cn2c(=O)c(Br)c(C)nc2s1", "melting point": "199 to 201"}, {"smiles": "Cc1cnn(-c2cc(F)c(C#N)cc2F)c(=O)c1", "melting point": 223}, {"smiles": "Oc1ccc(/C(=C(\\c2ccccc2)C(F)(F)F)c2ccccc2)cc1", "melting point": "113 to 120"}, {"smiles": "Cc1ncnn1C[Si](C)(C)c1ccc(-c2ccccc2)cc1", "melting point": "95 to 98"}, {"smiles": "N#Cc1ccc(CC(=O)c2c(O)c3cccnc3n(-c3ccccc3)c2=O)cc1", "melting point": "227 to 230"}, {"smiles": "C=C1c2ccccc2CC(=O)Cc2ccccc21", "melting point": "68 to 70"}, {"smiles": "Cc1cc(-c2nnc3c4ccccc4c(OCc4ccncn4)nn23)no1", "melting point": "222 to 224"}, {"smiles": "COc1ccc(F)cc1C(C)(C)CC(=O)C(=O)O", "melting point": "58 to 60"}, {"smiles": "O=C1NC(=O)C(Cc2ccc(N3CCC(NC[C@H](O)COc4cccnc4)CC3)cc2)S1", "note": "(stereo partly specified)", "melting point": "130 to 132"}, {"smiles": "CC(C)c1oc(C=Cc2ccccc2)nc1CC(=O)O", "melting point": "155 to 156"}, {"smiles": "NC(=O)N1CCC2(CC1)CN(c1ccccc1[N+](=O)[O-])c1ccccc12", "melting point": "218 to 219"}, {"smiles": "Nc1nc(Nc2ccccc2)c2[nH]cnc2n1", "melting point": 126}, {"smiles": "O=C(O)COc1cc2c(c(Cl)c1Cl)C(=O)C(c1ccccc1)(c1ccccc1)C2", "melting point": "251 to 252"}, {"smiles": "CC(=O)NCC#CCn1cncc1C", "melting point": "111 to 115"}, {"smiles": "NC(=O)N(O)Cc1ccc(Cl)s1", "melting point": "138 to 140"}, {"smiles": "COc1ccc(OC)c(OC)c1OC", "melting point": "84 to 85"}]}]}
